The test system of one test is Mia Pa Ca 2. Kind of test: Anti-neoplasmic activity against xenograft in hairless mice. It is filed as in vivo. The method in brief:
(§1)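 Tumour growth inhibition is assessed at a day after dosing ends (days 34–60 for slow growers such as Panc 1), valid only when more than half the animals survive. Dosing runs i.v. twice weekly for 4 weeks in female nude mice carrying 5×10^6-cell s.c. implants.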

Another test deals with DU 145. Described as above. It is filed as in vivo. In a few lines:
(§2)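 Mice bearing subcutaneous human tumours were randomised once tumours reached about 100 or 200 mm^3, then treated intravenously twice weekly for four weeks, with some series given intraperitoneally. Tumour length and width were measured twice weekly to derive volume and inhibition relative to controls.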

The next test has as its system H T29. The description is as above. Format: in vivo. As to conditions: series 3, i.v., total 24 mg/kg, day 20. The method in brief:
as §1

In a further test the test system is H 460. The test is described as above. It is filed as in vivo. In a few lines: (§3)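 Female 5-week Crl:Nu-Foxn1nu hairless mice received 5×10^6 tumour cells s.c.; therapy began at ~100 or 200 mm^3. Bis-acridines were given i.v. (some series i.p.) twice weekly for 4 weeks, at three doses. TGI [%]=100−(ΔVT/ΔVC×100) from caliper-derived tumour volumes.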
The next test relates to H-460. Nature of the test: Cytotoxic activity in vitro, SRB. Format: cell-based, human. The method in brief: (§4)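 In this NCI-style screen, cells of human tumour origin were treated with test compounds and stained with sulforhodamine B to gauge proliferation. Each EC50 gives the concentration inhibiting growth by half compared with control wells.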
A further test deals with MCF-7. Kind of test: Cytotoxic activity in vitro, SRB. Format: cell-based, human. The method in brief: as §4
A further test deals with AsPC-1. Kind of test: Cytotoxic activity in vitro, SRB. It is filed as cell-based, human. The method in brief: as §4
Another test has as its system HT-29. Nature of the test: Cytotoxic activity in vitro, SRB. It is filed as cell-based, human. The method in brief:
as §4

The next test has as its system UM-UC-3. Kind of test: Cytotoxic activity in vitro, SRB. It is filed as cell-based, human. In a few lines: as §4
The next test has as its system PC-3. Nature of the test: Cytotoxic activity in vitro, SRB. Format: cell-based, human. In a few lines: as §4
For a further test, the system named is DU-145. Nature of the test: Cytotoxic activity in vitro, SRB. It is filed as cell-based, human. In a few lines:
as §4

The next test concerns HCT-116. Nature of the test: Cytotoxic activity in vitro, SRB. It is filed as cell-based, human. In a few lines:
as §4

The subject of the next test is PANC-1. Kind of test: Cytotoxic activity in vitro, SRB. Format: cell-based, human. In a few lines: as §4
The test system of the next test is MDA-MB-231. Nature of the test: Cytotoxic activity in vitro, SRB. Format: cell-based, human. The method in brief: as §4
The subject of the next test is MiaPaCa-2. Kind of test: Cytotoxic activity in vitro, SRB. Format: cell-based, human. In a few lines:
as §4

In a further test the test system is MDA MB 231. Kind of test: Anti-neoplasmic activity against xenograft in hairless mice. The following applies: series 19, i.v. Format: in vivo. In a few lines: as §1
A further test deals with PANC 1. The description is as above. Format: in vivo. The method in brief:
as §3

The test system of another test is UM UC 3. The description is as above. Format: in vivo. The following applies: series 11, i.v., day 23. The method in brief: as §1
In a further test the test system is BxPC-3. Kind of test: Cytotoxic activity in vitro, SRB. Format: cell-based, human. In a few lines: as §4
In another test the test system is HCT 116. Nature of the test: Anti-neoplasmic activity against xenograft in hairless mice. It is filed as in vivo. In a few lines:
as §1

A further test relates to Capan-2. Nature of the test: Cytotoxic activity in vitro, SRB. It is filed as cell-based, human. In a few lines:
as §4

Another test deals with AsPC 1. Nature of the test: Anti-neoplasmic activity against xenograft in hairless mice. It is filed as in vivo. In a few lines:
as §1

A further test concerns PC 3. The description is as above. It is filed as in vivo. The following applies: single 1 mg/kg, total 8 mg/kg, day 39. The method in brief:
as §2

A further test concerns BXPC 3. Described as above. Format: in vivo. In a few lines: as §1

The values that follow come from patent publication US10202349B2, “Asymmetric bis-acridines with antitumour activity and their uses” (POLITECHNIKA GDAŃSKA, priority 2015, dated 2019).

“And” between values parts separate entries of the source, which are not always exact repeats. Identical values can stand only once. A value given as a limit tells only on which side of the number the result lay.

With `O=c1c2cc(O)ccc2[nH]c2c([N+](=O)[O-])ccc(NCCCN3CCN(CCCNc4c5ccccc5nc5cccc([N+](=O)[O-])c45)CC3)c12` [C-1941], the “TGI [%] [100 − (ΔVT/ΔVC × 100]” value in the test on Mia Pa Ca 2 (series 12, i.p., single 4 mg/kg, total 32 mg/kg, day 26) is on record as 30%; in the test on DU 145 (series 2, i.p., single 4 mg/kg, total 24 mg/kg, day 35), 52%; in the test with H T29 (single 3 mg/kg) it was 26%; in the test on H T29 (single 4 mg/kg), 35%; with H 460 (series 4, i.v., single 15 mg/kg, total 30 mg/kg, day 14), 24%. Besides, the EC50 is 20 nM in the test with H-460; 61 nM in the test on MCF-7; 210 nM in the test on AsPC-1; 38 nM with HT-29; 33 nM in the test with UM-UC-3; 31 nM with PC-3. In addition, the EC50 in the test on DU-145 turned out to be 20 nM; in the test with HCT-116, 11 nM; in the test with PANC-1 it was 43 nM; with MDA-MB-231 it was 12 nM; in the test with MiaPaCa-2 it was 12 nM.

As for `Cc1ccc(NCCCN2CCN(CCCNc3c4ccccc4nc4cccc([N+](=O)[O-])c34)CC2)c2c(=O)c3ccccc3[nH]c12` [C-1973, 1-[3-(4-methyl-9(10H)-acridono-1-yl)aminopropyl]-4-3′-[(1′-nitroacridin-1-yl)-aminopropyl]piperazine], the “TGI [%] [100 − (ΔVT/ΔVC × 100]” value was found to be 30% with MDA MB 231 (single 1 mg/kg, total 8 mg/kg, day 50); 75% in the test on PANC 1 (series 31, i.v., single 2 mg/kg, total 16 mg/kg, day 37); 90% in the test with DU 145 (series 13, i.v., single 4 mg/kg, total 32 mg/kg, day 63); 51% with DU 145 (series 18, i.v., single 1 mg/kg, total 8 mg/kg, day 33); 42% in the test on H 460 (series 16, i.v., single 2 mg/kg, total 10 mg/kg, day 21); 46% with UM UC 3 (single 2 mg/kg, total 14 mg/kg). Moreover, the EC50 in the test with H-460 worked out at 5 nM; in the test with MCF-7, 113 nM; in the test on AsPC-1, 79 nM; in the test with HT-29 it was 23 nM; in the test with UM-UC-3 it was 9.5 nM; in the test on BxPC-3, 59 nM. The EC50 with PC-3 came out at 48 nM; in the test with DU-145, 20 nM; with HCT-116, 19 nM; in the test with PANC-1 it was 27 nM; with MDA-MB-231, 28 nM; in the test on MiaPaCa-2, 16 nM.

`O=c1c2cc(O)ccc2n2cnc3ccc(NCCCN4CCN(CCCNc5c6ccccc6nc6cccc([N+](=O)[O-])c56)CC4)c1c32` [C-2027, 1-[3-(8-hydroxy-imidazo[4,5,1-de]-acridin-6-on-5-yl)aminopropyl]-4-[3′-(1′-nitroacridin-1-yl)-aminopropyl]piperazine]: the “TGI [%] [100 − (ΔVT/ΔVC × 100]” value is recorded as 15% in the test on HCT 116 (series 7, i.v., single 2.5 mg/kg, total 15 mg/kg, day 15); 29% in the test on Mia Pa Ca 2 (series 12, i.v., single 2 mg/kg, total 16 mg/kg, day 26); 83% with PANC 1 (series 10, i.v., single 2 mg/kg, total 10 mg/kg, day 45); 23% with PANC 1 (series 14, i.v., single 1 mg/kg, total 10 mg/kg, day 45); 51* % with PANC 1 (series 30, i.v., single 1 mg/kg, total 8 mg/kg, day 32, *at least half of animals did not survive); 47% in the test with UM UC 3 (single 4 mg/kg, total 28 mg/kg). The EC50 is 17 nM in the test on H-460; 62 nM in the test with MCF-7; 191 nM with AsPC-1; 81 nM in the test with HT-29; 18 nM in the test on UM-UC-3; 164 nM in the test on BxPC-3. Moreover, the EC50 is 35 nM in the test with PC-3; 20 nM in the test on DU-145; 20 nM in the test with HCT-116; 24 nM with PANC-1; 19 nM in the test with MDA-MB-231; 43 nM in the test with Capan-2. For the same compound, the EC50 in the test on MiaPaCa-2 was found to be 21 nM.

`CN(CCCNc1c2ccccc2nc2cccc([N+](=O)[O-])c12)CCCNc1ccc2ncn3c4ccccc4c(=O)c1c23` [C-2028, 9-{N-[(imidazo[4,5,1-de]-acridin-6-on-5-yl)aminopropyl]-N-methylaminopropylamino}-1′-nitroacridine]: the “TGI [%] [100 − (ΔVT/ΔVC × 100]” value is 44% in the test with MDA MB 231 (single 2 mg/kg, total 16 mg/kg, day 25); 34% with HCT 116 (series 7, i.v., single 4 mg/kg, total 24 mg/kg, day 15); 35% with AsPC 1 (series 23, i.v., single 6 mg/kg, total 48 mg/kg, day 46); 52% with Mia Pa Ca 2 (series 12, i.v., single 6 mg/kg, total 42 mg/kg, day 36); 68* % in the test with Mia Pa Ca 2 (series 28, i.v., single 2 mg/kg, total 8 mg/kg, day 11, *at least half of animals did not survive); 30% in the test with PC 3 (series 12, i.p.). Moreover, the “TGI [%] [100 − (ΔVT/ΔVC × 100]” value came to 71% with PANC 1 (series 10, i.v., single 1 mg/kg, total 10 mg/kg, day 31); 90% in the test with PANC 1 (series 14, i.v., single 4 mg/kg, total 36 mg/kg, day 45); 59% in the test with PANC 1 (series 29, i.v., single 4 mg/kg, total 20 mg/kg, day 36); 82% in the test with PANC 1 (series 32, i.v, single 2 mg/kg, total 16 mg/kg, day 40); 46% in the test on DU 145 (series 13, i.v., single 4 mg/kg, total 32 mg/kg, day 40); 64% with BXPC 3 (series 21, i.v., single 6 mg/kg, total 30 mg/kg, day 37). Further, the “TGI [%] [100 − (ΔVT/ΔVC × 100]” value came to 43% with BXPC 3 (series 33, i.v., single 4 mg/kg, total 32 mg/kg, day 36); 31% in the test on H 460 (series 16, i.v., single 1 mg/kg, total 5 mg/kg, day 28); 54% in the test on UM UC 3 (single 6 mg/kg, total 42 mg/kg). Also, the TGI with AsPC 1 (ASP-1, threshold activity) is less than 50%; in the test on Mia Pa Ca 2 (MiaPa Ca2, threshold activity), less than 50%; in the test on PANC 1 (PANC-1 cancer, three consecutive experimental runs), 71% and 90% and 82%; in the test on BXPC 3 (BXPC-3, significant activity), 64%. Further, the EC50 stood at 15 nM in the test on H-460; 53 nM in the test on MCF-7; 61 nM in the test with AsPC-1; 37 nM with HT-29; 10 nM in the test with UM-UC-3; 74 nM in the test on BxPC-3. Also, the EC50 in the test with PC-3 was 28 nM; in the test on DU-145, 23 nM; in the test with HCT-116 it was 17 nM; with PANC-1 it was 24 nM; with MDA-MB-231, 17 nM; with Capan-2, 11 nM. The compound also came in with an EC50 in the test on MiaPaCa-2 of 79 nM.

Take `O=c1c2ccccc2[nH]c2c([N+](=O)[O-])ccc(NCCCN3CCN(CCCNc4c5ccccc5nc5cccc([N+](=O)[O-])c45)CC3)c12` [C-2031, 1-[3-(4-nitro-9(10H)-acridono-1-yl)aminopropyl]-4-[3′-(1′-nitroacridin-1-yl)-aminopropyl]piperazine]: the “TGI [%] [100 − (ΔVT/ΔVC × 100]” value is 52* % with HCT 116 (series 8, i.v., single 6 mg/kg, total 18 mg/kg, day 14, *at least half of animals did not survive); 34% with HCT 116 (series 9, i.v., single 3 mg/kg, total 24 mg/kg, day 30); 30% with PC 3 (series 15, i.v.); 72% in the test on PANC 1 (series 10, i.v., single 3 mg/kg, total 30 mg/kg, day 45); 27% in the test on PANC 1 (series 14, i.v., single 1 mg/kg, total 10 mg/kg, day 37); 77% with DU 145 (series 13, i.v., single 4 mg/kg, total 32 mg/kg, day 35). Besides, the “TGI [%] [100 − (ΔVT/ΔVC × 100]” value is 81% in the test with DU 145 (series 18, i.p., single 1 mg/kg, total 8 mg/kg, day 64) and 60% in the test with H 460 (series 6, i.v., single 8 mg/kg, total 48 mg/kg, day 23). Further, the half-maximal effective concentration (EC50) in the test with H-460 stood at 9 nM; in the test on MCF-7, 77 nM; in the test on AsPC-1, 78 nM; in the test on UM-UC-3, 17 nM; with PC-3, 26 nM; in the test with DU-145, 11 nM. Further, the EC50 turned out to be 20 nM in the test on HCT-116, 56 nM in the test on PANC-1, 28 nM in the test on MDA-MB-231 and 28 nM in the test with MiaPaCa-2.
